According to US20090214529A9, “KINESIN INHIBITORS” (TaiGen Biotechnology Co., Ltd., priority 2007, published 2009):

Tested on: tumor cell
Test: Cytotoxicity assay (MTS)
Type: cell-based
Conditions: 72 h; incubation for three days; read-out: IC50, tumor cell growth inhibition (MTS)
Experimental: The efficacy of a test compound in inhibiting tumor cell growth was analyzed using a MTS assay. The MTS assay is a calorimetric method for the determination of viable cells in proliferation by using a tetrazolium compound (3-(4,5-dimethylthiazol-2-yl)-5-(3-[…])-2-(4-sulfophenyl)-2H-tetrazolium, inner salt; MTS) and an electron-coupling agent (phenazine methosulfate; PMS). The MTS reagent is converted by dehydrogenase enzymes in metabolically active cells into a formazan that is soluble in a tissue culture medium.
In this assay, tumor cell suspensions (30 μl/well) were seeded into 384-well flat-bottomed tissue culture plates at an appropriate density overnight. A fresh medium (3 μl/well) containing varying concentrations of a test compound or vehicle was added to the culture followed by incubation for three days. At the end of the incubation, all plates were processed simultaneously as follows: The culture medium was aspirated, a MTS cell proliferation assay (Promega) solution (30 μl/well) was added, and the plates were incubated at 37° C. for about 2 hours. Absorbance (a parameter proportional to the cell mass) was measured at 490 nm using a Multiskan (Thermo Electron Corporation, Waltham, Mass.). Inhibition effects were expressed as corrected T/C values for each test compound according to the following equation:
T/C=(T−Blank)/(C−Blank)×100(%),
where T is the mean absorbance of the treated cells, C is the mean absorbance of the controls, and Blank is the mean absorbance of the cell free well.

SMILES	IC50 [µM]
CC(C)[C@H](c1nc2c(oc3ccc(F)cc32)c(=O)n1Cc1ccsc1)N(CCN)C(=O)c1ccc(Br)cc1 [Compound 202]	< 30
Cc1ccc(C(=O)N(CCCN)C(c2nc3c(oc4ccccc43)c(=O)n2Cc2ccc(Cl)s2)C(C)C)cc1 (stereo not shown) [Compound 16]	< 30
Cc1ccc(C(=O)N(CCN)C(c2nc3c(oc4ccc(Cl)cc43)c(=O)n2Cc2cc(Br)co2)C(C)C)cc1 (stereo not shown) [Compound 99]	< 30
Cc1ccc(C(=O)N(CCCN)C(c2nc3c(sc4ccccc43)c(=O)n2Cc2ccc(Cl)s2)C(C)C)cc1 (stereo not shown) [Compound 138]	< 30
Cc1ccc(C(=O)N(CCCN)C(c2nc3c(Br)c4ccccc4cc3c(=O)n2Cc2ccccc2)C(C)C)cc1 (stereo not shown) [Compound 4]	< 30
Cc1ccc(C(=O)N(CCN)C(c2nc3c(oc4cc(Cl)ccc43)c(=O)n2Cc2ccccc2)C(C)C)cc1 (stereo not shown) [Compound 107]	< 30
CC(C)C(c1nc2c(oc3ccc(F)cc32)c(=O)n1Cc1ccc(Cl)o1)N(CCN)C(=O)c1ccc(Cl)cc1 (stereo not shown) [Compound 169]	< 30
Cc1ccc(C(=O)N(CCN)[C@@H](c2nc3c(oc4ccc(F)cc43)c(=O)n2Cc2ccc(Cl)o2)C(C)C)cc1F [Compound 190]	< 30
Cc1ccc(C(=O)N(CCCN)C(c2nc3c(oc4ccc(F)cc43)c(=O)n2Cc2ccc(C#N)s2)C(C)C)cc1 (stereo not shown) [Compound 72]	< 30
Cc1ccc(C(=O)N(CCN)C(c2nc3c(oc4ccc(F)cc43)c(=O)n2Cc2ccc(CO)cc2)C(C)C)cc1 (stereo not shown) [Compound 130]	< 30
Cc1ccc(C(=O)N(CCCN)C(c2nc3cc4[nH]ccc4cc3c(=O)n2Cc2cccs2)C(C)C)cc1 (stereo not shown) [Compound 2]	< 30
Cc1ccc(C(=O)N(CCN)[C@@H](c2nc3c(oc4ccc(F)cc43)c(=O)n2Cc2ccc(Br)s2)C(C)C)cc1 [Compound 183]	< 30
Cc1ccc(C(=O)N(CCN)C(c2nc3c(oc4ccccc43)c(=O)n2Cc2cc(C)cs2)C(C)C)cc1 (stereo not shown) [Compound 161]	< 30
CCC(c1nc2c(oc3ccccc32)c(=O)n1Cc1ccccc1)N(CCCCN(C)C)C(=O)c1ccc(Br)cc1 (stereo not shown) [Compound 24]	< 30
Cc1ccc(C(=O)N(CCCN)C(c2nc3c(C#N)c4ccccc4cc3c(=O)n2Cc2ccc(Cl)s2)C(C)C)cc1 (stereo not shown) [Compound 8]	< 30
CC(C)C(c1nc2c(oc3ccc(F)cc32)c(=O)n1Cc1ccccc1)N(CCN)C(=O)c1ccc(Cl)cc1 (stereo not shown) [Compound 64]	< 30
Cc1ccc(C(=O)N(CCCN)C(c2nc3c(oc4ccc(C)cc43)c(=O)n2Cc2ccccc2)C(C)C)cc1 (stereo not shown) [Compound 40]	< 30
Cc1ccc(C(=O)N(CCC2(N)CCC2)C(c2nc3n(c(=O)c2Cc2ccccc2)Cc2ccccc2-3)C(C)C)cc1 (stereo not shown) [Compound 153]	< 30
Cc1ccc(C(=O)N(CCCN)C(c2nc3c(oc4ccc(Br)cc43)c(=O)n2Cc2ccccc2)C(C)C)cc1 (stereo not shown) [Compound 38]	< 30
Cc1ccc(C(=O)N(CCN)[C@@H](c2nc3c(oc4ccc(F)cc43)c(=O)n2Cc2ccccc2)C2CC2)cc1 [Compound 225]	< 30
Cc1ccc(C(=O)N(CCCN)C(c2nc3c(oc4ccc(F)cc43)c(=O)n2Cc2ccsc2)C(C)C)cc1 (stereo not shown) [Compound 76]	< 30

SMILES	IC50 [µM]
Cc1ccc(C(=O)N(CCN)C(c2nc3c(oc4cc(F)ccc43)c(=O)n2Cc2ccc(Cl)s2)C(C)C)cc1 (stereo not shown) [Compound 110]	< 30
Cc1ccc(C(=O)N(CCN)C(c2nc3c(oc4ccc(F)cc43)c(=O)n2Cc2cccc(Cl)c2)C(C)C)cc1 (stereo not shown) [Compound 122]	< 30
Cc1ccc(Cn2c(C(C(C)C)N(CCN)C(=O)c3ccc(C)cc3)nc3c(oc4ccc(F)cc43)c2=O)cc1 (stereo not shown) [Compound 123]	< 30
Cc1ccc(C(=O)N(CCCN)C(c2nc3c(oc4ccc(Cl)cc43)c(=O)n2Cc2ccccc2)C(C)C)cc1 (stereo not shown) [Compound 35]	< 30
Cc1ccc(C(=O)N(CCCN)C(c2nc3c(oc4ccc(Cl)cc43)c(=O)n2Cc2ccc(C#N)s2)C(C)C)cc1 (stereo not shown) [Compound 47]	< 30
CC(C)C(c1nc2c(sc3ccc(F)cc32)c(=O)n1Cc1ccccc1)N(CCCN)C(=O)c1ccc(Br)cc1 (stereo not shown) [Compound 140]	< 30
Cc1ccc(C(=O)N(CCN)[C@@H](c2nc3c(oc4ccc(F)cc43)c(=O)n2Cc2ccc(Br)o2)C2CC2)cc1 [Compound 223]	< 30
Cc1ccc(C(=O)N(CCN)[C@@H](c2nc3c(oc4ccc(F)cc43)c(=O)n2Cc2cc(C)cs2)C2CC2)cc1 [Compound 222]	< 30
CCC(c1nc2c(oc3ccccc32)c(=O)n1Cc1ccccc1)N(CCCCN)C(=O)c1ccc(C)cc1 (stereo not shown) [Compound 22]	< 30
Cc1ccc(C(=O)N(CCN)C(c2nc3c(oc4ccc(F)cc43)c(=O)n2Cc2ccc(C(=O)N(C)C)s2)C(C)C)cc1 (stereo not shown) [Compound 115]	< 30
CCC(c1nc2nc3ccccc3cc2c(=O)n1Cc1ccccc1)N(CCCN)C(=O)c1ccc(C)cc1 (stereo not shown) [Compound 11]	< 30
Cc1ccc(C(=O)N(CCCN)[C@@H](c2nc3c(oc4ccccc43)c(=O)n2Cc2ccccc2)C(C)C)cc1 [Compound 175]	< 30
Cc1ccc(C(=O)N(CCCN)C(c2nc3n(c(=O)c2Cc2ccccc2)Cc2ccccc2-3)C(C)C)cc1F (stereo not shown) [Compound 152]	< 30
Cc1ccc(C(=O)N(NCCN)C(c2nc3c(sc4ccccc43)c(=O)n2Cc2ccc(Br)s2)C(C)C)cc1 (stereo not shown) [Compound 149]	< 30
Cc1ccc(C(=O)N(CCN)[C@@H](c2nc3c(oc4ccc(F)cc43)c(=O)n2Cc2ccoc2)C(C)C)cc1F [Compound 197]	< 30
Cc1ccc(C(=O)N(CCN)[C@@H](c2nc3c(oc4ccc(F)cc43)c(=O)n2Cc2cc(C#N)cs2)C(C)C)cc1 [Compound 178]	< 30
Cc1ccc(C(=O)N(CCN)C(c2nc3c(oc4ccc(F)cc43)c(=O)n2Cc2cc(Br)co2)C(C)C)cc1 (stereo not shown) [Compound 92]	< 30
Cc1ccc(C(=O)N(CCCN)C(c2nc3c(sc4ncccc43)c(=O)n2Cc2ccccc2)C(C)C)cc1 (stereo not shown) [Compound 156]	< 30
CC(C)C(c1nc2c(oc3ccc(F)cc32)c(=O)n1Cc1ccccc1)N(CCN)C(=O)c1ccc(Br)cc1 (stereo not shown) [Compound 65]	< 30
Cc1ccc(C(=O)N(CCN)C(c2nc3c(oc4ccc(F)cc43)c(=O)n2Cc2ccoc2)C(C)C)cc1 (stereo not shown) [Compound 128]	< 30
CC[C@@H](C)[C@H](c1nc2c(oc3ccc(F)cc32)c(=O)n1Cc1ccc(Br)o1)N(CCN)C(=O)c1ccc(C)cc1 [Compound 220]	< 30

SMILES	IC50 [µM]
CC(C)[C@H](c1nc2c(oc3ccc(F)cc32)c(=O)n1Cc1ccccc1)N(CCN)C(=O)c1ccc(Br)cc1 [Compound 205]	< 30
Cc1ccc(C(=O)N(CCCN)C(c2nc3n(c(=O)c2Cc2ccccc2)Cc2ccccc2-3)C(C)C)c(F)c1F (stereo not shown) [Compound 154]	< 30
Cc1ccc(C(=O)N(CCN)[C@@H](c2nc3c(oc4ccc(F)cc43)c(=O)n2Cc2ccccc2)C(C)C)c(F)c1F [Compound 206]	< 30
Cc1ccc(C(=O)N(CCN)C(c2nc3c(oc4ccc(F)cc43)c(=O)n2Cc2ccc(C(N)=O)o2)C(C)C)cc1 (stereo not shown) [Compound 113]	< 30
Cc1ccc(C(=O)N(CCN)C(c2nc3c(oc4ccc(F)cc43)c(=O)n2Cc2ccco2)C(C)C)cc1 (stereo not shown) [Compound 127]	< 30
Cc1ccc(C(=O)N(CCN)C(c2nc3c(oc4ccc(Cl)cc43)c(=O)n2Cc2ccc(Cl)o2)C(C)C)cc1 (stereo not shown) [Compound 100]	< 30
Cc1ccc(C(=O)N(CCCN)C(c2nc3c(oc4cc(Cl)ccc43)c(=O)n2Cc2ccccc2)C(C)C)cc1 (stereo not shown) [Compound 108]	< 30
CCCC(c1nc2c(oc3ccccc32)c(=O)n1Cc1ccccc1)N(CC(O)CN)C(=O)c1ccc(C)cc1 (stereo not shown) [Compound 58]	< 30
CC(C)C(c1nc2c(oc3ccc(F)cc32)c(=O)n1Cc1ccc(Cl)s1)N(CCN)C(=O)c1ccc(Cl)cc1 (stereo not shown) [Compound 68]	< 30
Cc1ccc(C(=O)N(CCN)[C@@H](c2nc3c(oc4ccc(F)cc43)c(=O)n2Cc2ccc(C(F)(F)F)o2)C(C)C)cc1F [Compound 214]	< 30
Cc1ccc(C(=O)N(CCCN)C(c2nc3c(oc4cc(F)ccc43)c(=O)n2Cc2ccccc2)C(C)C)cc1 (stereo not shown) [Compound 106]	< 30
Cc1ccc(C(=O)N(CCN)C(c2nc3c(oc4ccc(Cl)cc43)c(=O)n2Cc2ccoc2)C(C)C)cc1 (stereo not shown) [Compound 126]	< 30
Cc1ccc(C(=O)N(NCCN)C(c2nc3c(oc4ccccc43)c(=O)n2Cc2ccccc2)C(C)C)cc1 (stereo not shown) [Compound 26]	< 30
C#CCNC(=O)c1ccc(Cn2c(C(C(C)C)N(CCN)C(=O)c3ccc(C)cc3)nc3c(oc4ccc(F)cc43)c2=O)s1 (stereo not shown) [Compound 121]	< 30
Cc1ccc(C(=O)N(CCN)[C@@H](c2nc3c(oc4ccc(F)cc43)c(=O)n2Cc2cc(Br)co2)C(C)C)cc1 [Compound 217]	< 30
Cc1ccc(C(=O)N(CCN)C(c2nc3c(oc4ccc(F)cc43)c(=O)n2Cc2ccc(C(N)=O)s2)C(C)C)cc1 (stereo not shown) [Compound 98]	< 30
Cc1ccc(C(=O)N(CCN)C(c2nc3c(oc4ccc(F)cc43)c(=O)n2Cc2ccc(C(=O)NC(C)C)o2)C(C)C)cc1 (stereo not shown) [Compound 119]	< 30
Cc1csc(Cn2c([C@@H](C(C)C)N(CCN)C(=O)c3ccc(C)c(F)c3)nc3c(oc4ccc(F)cc43)c2=O)c1 [Compound 176]	< 30
Cc1ccc(C(=O)N(CCN)C(c2nc3c(oc4ccc(F)cc43)c(=O)n2Cc2ccc(C#N)s2)C(C)C)cc1F (stereo not shown) [Compound 174]	< 30
